Experimental data: ChEMBL document CHEMBL3351849, “Synthesis, biological activity and mechanistic insights of 1-substituted cyclopropylamine derivatives: a novel class of irreversible inhibitors of histone demethylase KDM1A” (Eur J Med Chem, 2014)
Activity calls are given as the source filed them. No cut-off for these calls is given here.

Key:
[1] = target: T1, Amine oxidase [flavin-containing] A (Homo sapiens, UniProt P21397)
T1 sequence (P21397 whole entry): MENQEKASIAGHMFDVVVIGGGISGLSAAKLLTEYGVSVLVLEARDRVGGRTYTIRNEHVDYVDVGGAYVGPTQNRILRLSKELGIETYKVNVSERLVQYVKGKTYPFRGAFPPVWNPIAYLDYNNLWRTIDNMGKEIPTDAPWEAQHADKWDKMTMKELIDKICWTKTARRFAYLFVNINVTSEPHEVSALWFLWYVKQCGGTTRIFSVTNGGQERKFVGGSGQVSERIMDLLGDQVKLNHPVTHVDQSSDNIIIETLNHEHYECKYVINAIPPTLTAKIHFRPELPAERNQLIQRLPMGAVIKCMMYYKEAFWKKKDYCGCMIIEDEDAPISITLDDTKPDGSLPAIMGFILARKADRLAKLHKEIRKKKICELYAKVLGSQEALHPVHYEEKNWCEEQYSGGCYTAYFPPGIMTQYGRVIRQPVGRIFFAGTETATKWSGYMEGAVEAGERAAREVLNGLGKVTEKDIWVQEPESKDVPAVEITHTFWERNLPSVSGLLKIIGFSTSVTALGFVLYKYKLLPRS

[2] = target: T2, Amine oxidase [flavin-containing] B (Homo sapiens, UniProt P27338)
T2 sequence (P27338 whole entry): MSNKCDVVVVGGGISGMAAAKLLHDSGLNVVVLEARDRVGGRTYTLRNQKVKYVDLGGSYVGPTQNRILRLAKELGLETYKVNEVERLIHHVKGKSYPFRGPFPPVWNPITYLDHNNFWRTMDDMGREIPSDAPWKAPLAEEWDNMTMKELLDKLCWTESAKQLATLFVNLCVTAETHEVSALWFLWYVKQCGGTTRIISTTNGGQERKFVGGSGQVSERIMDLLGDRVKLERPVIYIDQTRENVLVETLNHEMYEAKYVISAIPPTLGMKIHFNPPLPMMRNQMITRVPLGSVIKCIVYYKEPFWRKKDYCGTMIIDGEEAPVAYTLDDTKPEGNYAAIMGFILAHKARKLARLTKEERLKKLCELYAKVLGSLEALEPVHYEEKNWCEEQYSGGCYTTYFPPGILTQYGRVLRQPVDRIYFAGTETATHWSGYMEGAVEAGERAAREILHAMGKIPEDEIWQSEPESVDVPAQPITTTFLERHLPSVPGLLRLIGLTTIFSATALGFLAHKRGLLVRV

[3] = target: T3, Lysine-specific histone demethylase 1A (Homo sapiens, UniProt O60341); test: Inhibition of human recombinant KDM1A/CoREST expressed in Escherichia coli assessed as reduction in H2O2 release at 100 uM using synthetic mono-methylated H3-K4 peptide (21 amino acids) substrate by horseradish peroxidase coupled enzyme assay
[4] = target: T3, Lysine-specific histone demethylase 1A
[5] = target: T3, Lysine-specific histone demethylase 1A; test: Inhibition of KDM1A in human NB4 cells assessed as increase in Gfi-1b mRNA expression up to 100 uM incubated for 24 hrs by quantitative RT-PCR method; format: cell-based; conditions: NB-4
[6] = target: T3, Lysine-specific histone demethylase 1A; remark: listed apart in the source
[7] = target: T3, Lysine-specific histone demethylase 1A; test: Inhibition of human recombinant KDM1A/CoREST expressed in Escherichia coli assessed as reduction in H2O2 release at 22 uM using synthetic mono-methylated H3-K4 peptide (21 amino acids) substrate by horseradish peroxidase coupled enzyme assay

IC50 [1]	IC50 [2]	SMILES	further results
3.51 µM	50.5 µM	N[C@]1(Cc2ccccc2)C[C@@H]1c1ccccc1 (relative stereo)	
		NC[C@@H]1C[C@H]1c1ccccc1 (relative stereo)	inhibition [3]: 0%
		C#CCN(C)CCCOc1ccc(Cl)cc1Cl [CLORGILINE]	IC50 [4]: Not Active; inhibition [5]: inactive
0.527 µM	0.6 µM	CCC[C@@]1(N)C[C@H]1c1ccccc1 (relative stereo)	
8.31 µM	74.3 µM	N[C@@]1(Cc2ccccc2)C[C@@H]1c1ccccc1	
1.3 µM	12.7 µM	N[C@]1(Cc2ccc3ccccc3c2)C[C@H]1c1ccccc1 (relative stereo)	
		CCOC(=O)[C@]1(N)C[C@H]1c1ccccc1 (relative stereo)	IC50 [6]: > 100 µM; inhibition [3]: 11%
0.094 µM	11.5 µM	N[C@@]1(c2ccccc2)C[C@@H]1c1ccccc1	
		N[C@@]1(C(=O)O)C[C@H]1c1ccccc1 (relative stereo)	IC50 [6]: > 100 µM; inhibition [3]: 21%
0.0214 µM	0.941 µM	N[C@]1(CCc2ccccc2)C[C@H]1c1ccccc1 (racemic)	
0.0828 µM	10.4 µM	N[C@@]1(c2ccccc2)C[C@H]1c1ccccc1 (relative stereo)	
		NCC(=O)c1ccccc1	inhibition [7]: 30%
2.59 µM	28.1 µM	N[C@]1(Cc2ccccc2)C[C@H]1c1ccccc1	
0.235 µM	5.55 µM	N[C@]1(c2ccccc2)C[C@H]1c1ccccc1	
		N[C@@H]1C[C@@H]1Oc1ccccc1 (relative stereo)	inhibition [3]: 0%
		N[C@H]1C[C@@H]1Oc1ccccc1 (relative stereo)	inhibition [3]: 0%

SMILES	IC50 [1]	IC50 [2]	further results
CC[C@]1(N)C[C@@H]1c1ccccc1	1.43 µM	0.088 µM	
CC[C@@]1(N)C[C@@H]1c1ccccc1 (relative stereo)	1.92 µM	0.19 µM	
CC[C@@]1(N)C[C@H]1c1ccccc1	6.8 µM	33.3 µM	
